# Where “and” joins values, the source holds several entries; their conditions need not be identical. Equal values may be shown once. Entries after “also recorded” stand apart in the source; their conditions may differ.
# Tests used:
# [1] = system: ALK-driven refractory or relapsed neuroblastoma; assay: Progression-free survival and overall survival (Kaplan-Meier) by cohort; type: in vivo, human; details: individual patients (PID); for PFS status: source data of Figure 3; for PFS time, years since on study: time is censored where PFS status is No event; for OS time, years since on study: time is censored where vital status is Alive
# Text: Supplement 41591_2023_2297_MOESM8_ESM.xlsx, sheet "Figure 3" | column: PFS status; PFS time, years since on study; Vital status; OS time, years since on study
# [2] = adults with NSCLC; cited from earlier work
structure (smiles),measurement,setting,value
"C[C@H]1Oc2cc(cnc2N)-c2c(nn(C)c2C#N)CN(C)C(=O)c2ccc(F)cc21 [Lorlatinib, (10R)-7-amino-12-fluoro-2,10,16-trimethyl-15-oxo-10,15,16,17-tetrahydro-2H-8,4-(metheno)pyrazolo[4,3-h][2,5,11]-benzoxadiazacyclotetradecine-3-carbonitrile]",Vital status,[1]; cohort A1,Alive; also recorded: Deceased
same,PFS status,[1]; cohort A1,No event; also recorded: Relapsed/Deceased
same,"PFS time, years since on study",[1]; cohort A1,3.67 years and 0.13 years and 2.37 years and 0.10 years and 1.50 years and 0.08 years and 3.43 years and 0.31 years and 0.0657 years and 1.07 years and 1.17 years and 0.15 years and 0.30 years and 4.15 years and 0.28 years and 0.11 years and 0.16 years
same,"OS time, years since on study",[1]; cohort A1,3.67 years and 0.74 years and 3.43 years and 0.10 years and 1.50 years and 0.40 years and 0.36 years and 0.32 years and 0.39 years and 0.16 years and 2.28 years and 1.68 years and 0.20 years and 1.46 years and 1.11 years and 0.48 years and 0.56 years and 0.37 years and 4.15 years and 0.65 years and 0.63 years
same,Vital status,[1]; cohort A2,Alive; also recorded: Deceased
same,PFS status,[1]; cohort A2,No event; also recorded: Relapsed/Deceased
same,"PFS time, years since on study",[1]; cohort A2,4.39 years and 0.15 years and 0.82 years and 1.03 years and 0.80 years and 2.07 years and 0.89 years and 0.77 years and 0.32 years and 2.48 years and 2.24 years and 1.46 years and 1.34 years and 0.93 years and 0.73 years
same,"OS time, years since on study",[1]; cohort A2,4.39 years and 0.51 years and 1.86 years and 1.14 years and 1.78 years and 3.47 years and 0.89 years and 1.27 years and 1.10 years and 2.48 years and 2.24 years and 1.46 years and 1.34 years and 0.93 years and 0.73 years
same,Vital status,[1]; cohort B2,Deceased; also recorded: Alive
same,PFS status,[1]; cohort B2,Relapsed/Deceased; also recorded: No event
same,"PFS time, years since on study",[1]; cohort B2,0.50 years and 0.66 years and 0.13 years and 0.45 years and 1.28 years and 0.06 years and 0.44 years and 0.70 years and 0.16 years
same,"OS time, years since on study",[1]; cohort B2,1.16 years and 0.66 years and 0.41 years and 0.79 years and 1.28 years and 0.22 years and 0.44 years and 0.70 years and 0.54 years
same,adult RP2D,[2],100 mg per day
